Test results as given in patent publication US20040229848A1, “Glutaminyl based DP IV-inhibitors” (priority 2003, published 2004).

What follows are compounds tested against human QC (Homo sapiens, UniProt Q16769) (assay: Inhibition of the human QC (glutaminyl cyclase) catalyzed reaction, Ki determination). Conditions: not given.
Sequence of human QC (Q16769 29-361): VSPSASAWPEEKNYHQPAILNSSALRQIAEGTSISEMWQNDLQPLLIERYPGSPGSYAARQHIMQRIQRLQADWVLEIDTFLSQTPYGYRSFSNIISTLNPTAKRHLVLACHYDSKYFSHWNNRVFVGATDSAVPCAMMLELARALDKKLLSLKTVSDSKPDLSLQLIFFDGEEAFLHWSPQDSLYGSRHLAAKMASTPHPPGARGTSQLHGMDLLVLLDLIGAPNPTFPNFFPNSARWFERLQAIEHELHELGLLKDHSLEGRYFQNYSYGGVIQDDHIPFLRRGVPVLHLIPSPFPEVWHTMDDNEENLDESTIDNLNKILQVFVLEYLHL

Ki | SMILES
30 ± 1 µM | Cn1ccnc1 [1-methylimidazole]
32.2 ± 0.7 µM | COC(=O)[C@H](C)NC(=O)C1CCC(Cn2ccnc2)N1 (some centres unmarked) [2-[(5-imidazol-1-ylmethyl-pyrrolidine-2-carbonyl)-amino]-propionic acid methyl ester]
2.5 ± 0.1 µM | Cc1c(C(=O)CCn2ccnc2)sc2ccccc12 [3-(1H-imidazol-1-yl)-1-(3-methylbenzo[b]thiophene-2-yl)propan-1-one]
0.41 ± 0.01 µM | O=C1CNC(=S)N1CCCn1ccnc1 [3-[3-(1H-imidazol-1-yl)propyl]-2-thioxoimidazolidin-4-one]
3.4 ± 0.1 µM | O=C(O)c1ccc(OCCn2ccnc2)cc1 [4-[2-(1H-imidazol-1-yl)-ethoxy]benzoic acid]
6.7 ± 0.3 µM | CCCC1C(=O)OCC1Cc1cncn1C (centres unmarked) [4-[(1-methyl-1H-imidazol-5-yl)methyl]-3-propyldihydrofuran-2-(3H)-one]
6.6 ± 0.4 µM | O=C(Nc1ccccc1C(=O)NCCCn1ccnc1)c1ccc([N+](=O)[O-])o1 [5-nitro-2-[2-([{3-(1H-imidazol-1-yl-)propyl}amino]carbonyl)phenyl]furamide]
35.6 ± 0.5 µM | c1ccn2cncc2c1 [Imidazo[1.5a]pyridine]
78 ± 2 µM | O=C(C(=O)n1ccnc1)n1ccnc1 [oxalic acid dilmidazolidide]

SMILES | Ki
COC(=O)[C@@H](NC(=O)[C@@H](N)CCC(=O)Nn1ccnc1)C(C)C [Methyl (2S)-2-{[(28)-2-amino-5-(1H-imidazol-1-ylamino)-5-oxopentanoyl]amino}-3-methylbutanoate] | 164 ± 4 µM
S=C(NCCn1ccnc1)Nc1ccc(Cl)cc1 [N-(4-chlorophenyl)-N′-[2-(1H-imidazol-1-yl)ethyl]thiourea] | 1.65 ± 0.07 µM

Same assay, conditions: QC inhibition by L-histamine and its two biological metabolites (Table 4)

Ki value (mM) | SMILES
n.i | Cn1cnc(CCN)c1 [1-methyl-4-(β-aminoethyl)-imidazole]

Same assay, conditions: human QC catalyzed reaction; 30° C. in 0.05 M Tris-HCl pH 8.0, containing 5 mM EDTA

Ki-value (mM) | SMILES
no inhibition | O=S(=O)(n1ccnc1)n1ccnc1 [1,1′-sulfonyldiimidazole]
no inhibition | N#Cc1nc[nH]c1C#N [4,5-dicyanoimidazole]
no inhibition | c1ccc(-c2nc[nH]c2-c2ccccc2)cc1 [4,5-diphenyl-imidazole]

SMILES | Ki-value (mM)
c1ccc(-n2ccnc2)cc1 [1-phenylimidazole] | no inhibition
Clc1nc2ccccc2[nH]1 [2-chioro-1H-benzimidazole] | no inhibition

Same assay, conditions: read-out: Ki value; QC inhibition by L-histamine and its two biological metabolites (Table 4)

SMILES | Ki
Cn1cncc1CCN [3-methyl-4-(β-aminoethyl)-imidazole] | 120 ± 4 µM
NCCc1c[nH]cn1 [L-histamine] | 850 ± 40 µM

Same assay, conditions: read-out: Ki-value; human QC catalyzed reaction; 30° C. in 0.05 M Tris-HCl pH 8.0, containing 5 mM EDTA

Ki | SMILES
49 ± 2 µM | C=Cn1ccnc1 [1-vinylimidazole]
1800 ± 100 µM | Nc1nc2ccccc2[nH]1 [2-aminobenzimidazole]
580 ± 40 µM | CCc1nc(C)c[nH]1 [2-ethyl-4-methyl-imidazole]
15500 ± 500 µM | NC(=O)c1[nH]cnc1N [4-amino-imidazole-5-carbonic acid amide]
7600 ± 700 µM | O=Cc1c[nH]cn1 [4-imidazole-carboxaldehyde]
129 ± 5 µM | Cc1nc[nH]c1CO [5-hydroxymethyl-4-methyl-imidazole]
560 ± 40 µM | NC(=O)[C@@H](N)Cc1c[nH]cn1 [L-histidinamide]
1530 ± 120 µM | N[C@H](CO)Cc1c[nH]cn1 [L-histidinol]
174 ± 7 µM | O=C(c1ccccc1)n1ccnc1 [N-benzoylimidazole]

SMILES | Ki
O=C(Cn1ccnc1)c1ccccc1 [1-(2-oxo-2-phenyl-ethyl)-imidazole] | 184 ± 5 µM
NCCCn1ccnc1 [1-(3-aminopropyl)-imidazole] | 410 ± 10 µM
Cc1nc2ccccc2[nH]1 [2-methyl-benzylimidazole] | 165 ± 4 µM
NCCc1c[nH]cn1 [L-histamine] | 850 ± 40 µM
N[C@@H](Cc1c[nH]cn1)C(=O)O [L-histidine] | 4400 ± 200 µM
C[Si](C)(C)n1ccnc1 [N-(trimethylsilyl)-imidazole] | 167 ± 7 µM
CC(=O)n1ccnc1 [N-acetylimidazole] | 107 ± 3 µM
COC(=O)c1c[nH]cn1 [imidazole-4-carbonic acid methylester] | 14500 ± 600 µM

Each compound was assayed against DPIV (Homo sapiens, UniProt P27487) (assay: DPIV activity assay, hydrolysis of H-Gly-Pro-pNA). Conditions: 0.4 mM H-Gly-Pro-pNA, 0.65 mU DPIV, 0.04 M Hepes pH 7.6, 30° C.; 2.6*10^−5 M glutaminyl thiazolidine.
Sequence of DPIV (P27487 whole entry): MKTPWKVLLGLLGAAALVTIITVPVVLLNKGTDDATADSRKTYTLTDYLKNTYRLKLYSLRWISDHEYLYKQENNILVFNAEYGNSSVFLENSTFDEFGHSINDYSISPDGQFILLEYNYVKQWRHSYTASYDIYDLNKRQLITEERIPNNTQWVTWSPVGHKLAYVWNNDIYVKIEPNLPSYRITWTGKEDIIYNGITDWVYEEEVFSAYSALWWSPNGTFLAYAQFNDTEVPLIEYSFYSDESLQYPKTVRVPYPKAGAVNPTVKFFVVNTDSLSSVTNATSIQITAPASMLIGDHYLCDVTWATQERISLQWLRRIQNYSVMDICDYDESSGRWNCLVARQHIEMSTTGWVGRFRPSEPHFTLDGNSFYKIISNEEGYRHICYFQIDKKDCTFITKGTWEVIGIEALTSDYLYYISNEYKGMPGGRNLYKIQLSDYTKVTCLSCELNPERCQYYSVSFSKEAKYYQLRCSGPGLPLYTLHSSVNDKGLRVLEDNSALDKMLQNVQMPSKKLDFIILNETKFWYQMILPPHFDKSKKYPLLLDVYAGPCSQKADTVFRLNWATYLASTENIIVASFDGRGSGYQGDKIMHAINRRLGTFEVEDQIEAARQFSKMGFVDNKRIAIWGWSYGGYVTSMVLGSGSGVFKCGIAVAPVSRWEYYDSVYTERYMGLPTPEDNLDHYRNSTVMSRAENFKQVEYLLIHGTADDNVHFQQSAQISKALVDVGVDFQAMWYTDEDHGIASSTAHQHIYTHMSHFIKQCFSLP
Procedure: All assays were performed at 30° C. using the Sunrise reader for microplates (TECAN). […] Additionally, samples contained either
a) 2.6*10^−5 M glutaminyl thiazolidine (open circles), or
Otherways, reactions were started by addition of a mixture of H-Gly-Pro-pNA and glutaminyl thiazolidine. Reactions were followed by monitoring the decrease in absorbance at 400 nm.

SMILES | inhibition of DPIV (hydrolysis of H-Gly-Pro-pNA)
NC(=O)CC[C@H](N)C(=O)N1CCSC1 [glutaminyl thiazolidine] | competitive inhibition
O=C1CCC(C(=O)N2CCSC2)N1 (centres unmarked) [pyro-glutaminyl-thiazolidine] | not active

Each compound was assayed against glutaminyl cyclase (QC) (Homo sapiens, UniProt Q16769) (assay: not given). Conditions: not given.
Sequence of glutaminyl cyclase (QC) (Q16769 29-361): as the sequence (Q16769 29-361) above

SMILES | degradation by glutaminyl cyclase | half-life in the presence of QC
NC(=O)CC[C@H](N)C(=O)N1CCSC1 [glutaminyl thiazolidine] | degraded to the pyro-glutaminyl-thiazolidine | reduced

Same assay, conditions: case (c): 2.6*10^−5 M glutaminyl thiazolidine, 54 mU QC and 0.4 mM inhibitor

SMILES | reaction rate of H-Gly-Pro-pNA hydrolysis after addition of the QC inhibitor
c1ccc2[nH]cnc2c1 [benzimidazole] | the reaction rate goes down as low as in case (a)
